Source: the supplement of paper PMC10307832

Assays:
Experiment in all cases: relative viability (nuclei count vs DMSO), 5 days (fraction); higher = more cells survive
Bleomycin + Bortezomib = compound: CC1=C(N=C(N=C1N)[C@H](CC(=O)N)NC[C@@H](C(=O)N)N)C(=O)N[C@@H]([C@H](C2=CN=CN2)OC3C(C(C(C(O3)CO)O)O)OC4C(C(C(C(O4)CO)O)OC(=O)N)O)C(=O)N[C@H](C)[C@H]([C@H](C)C(=O)N[C@@H]([C@@H](C)O)C(=O)NCCC5=NC(=CS5)C6=NC(=CS6)C(=O)NCCC[S+](C)C)O [Bleomycin] + CC(C)C[C@H](NC(=O)[C@H](Cc1ccccc1)NC(=O)c1cnccn1)B(O)O [Bortezomib] (partner 0.002 µM); conditions: main component drawn
Summary of the method: (§1)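 Nuclei were stained with Hoechst during a one-step fixation (final 0.05% Triton X-100, 1% formaldehyde, 1 ug/ml Hoechst) carried out 5 days after dosing, then counted on 4× images. The cells, lung cancer lines in 1536-well plates, had been dosed by pin tool the day after seeding with one drug alone or a fixed anchor-drug dose plus five library-drug doses (not always all listed) in √10 steps. Relative viability is the nuclei count in treated wells divided by that in vehicle wells, and each value is the median of duplicate plates.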

Etoposide + Luminespib = compound: COc1cc([C@@H]2c3cc4c(cc3[C@@H](O[C@@H]3O[C@@H]5CO[C@@H](C)O[C@H]5[C@H](O)[C@H]3O)[C@H]3COC(=O)[C@H]23)OCO4)cc(OC)c1O [Etoposide] + CCNC(=O)c1noc(-c2cc(C(C)C)c(O)cc2O)c1-c1ccc(CN2CCOCC2)cc1 [Luminespib] (partner 0.01 µM)
Summary of the method: as §1

Etoposide + Dasatinib = compound: COc1cc([C@@H]2c3cc4c(cc3[C@@H](O[C@@H]3O[C@@H]5CO[C@@H](C)O[C@H]5[C@H](O)[C@H]3O)[C@H]3COC(=O)[C@H]23)OCO4)cc(OC)c1O [Etoposide] + Cc1nc(Nc2ncc(C(=O)Nc3c(C)cccc3Cl)s2)cc(N2CCN(CCO)CC2)n1 [Dasatinib] (partner 0.075 µM)
Summary of the method: as §1

Bleomycin + Decitabine = compound: CC1=C(N=C(N=C1N)[C@H](CC(=O)N)NC[C@@H](C(=O)N)N)C(=O)N[C@@H]([C@H](C2=CN=CN2)OC3C(C(C(C(O3)CO)O)O)OC4C(C(C(C(O4)CO)O)OC(=O)N)O)C(=O)N[C@H](C)[C@H]([C@H](C)C(=O)N[C@@H]([C@@H](C)O)C(=O)NCCC5=NC(=CS5)C6=NC(=CS6)C(=O)NCCC[S+](C)C)O [Bleomycin] + Nc1ncn([C@H]2C[C@H](O)[C@@H](CO)O2)c(=O)n1 [Decitabine] (partner 2 µM); conditions: main component drawn
Summary of the method: as §1

Cell Line	relative viability (Bleomycin + Bortezomib; first compound 0.03162 µM)	relative viability (Bleomycin + Bortezomib; first compound 0.1 µM)	relative viability (Bleomycin + Bortezomib; first compound 0.3162 µM)	relative viability (Bleomycin + Bortezomib; first compound 1 µM)	relative viability (Etoposide + Luminespib; first compound 0.01 µM)	relative viability (Etoposide + Luminespib; first compound 0.03162 µM)	relative viability (Etoposide + Luminespib; first compound 0.1 µM)	relative viability (Etoposide + Luminespib; first compound 0.3162 µM)	relative viability (Etoposide + Luminespib; first compound 1 µM)	relative viability (Etoposide + Dasatinib; first compound 0.01 µM)	relative viability (Etoposide + Dasatinib; first compound 0.03162 µM)	relative viability (Etoposide + Dasatinib; first compound 0.1 µM)	relative viability (Etoposide + Dasatinib; first compound 0.3162 µM)	relative viability (Etoposide + Dasatinib; first compound 1 µM)	relative viability (Bleomycin + Decitabine; first compound 0.01 µM)	relative viability (Bleomycin + Decitabine; first compound 0.03162 µM)	relative viability (Bleomycin + Decitabine; first compound 0.1 µM)	relative viability (Bleomycin + Decitabine; first compound 0.3162 µM)	relative viability (Bleomycin + Decitabine; first compound 1 µM)	relative viability (Bleomycin + Bortezomib; first compound 0.01 µM)
ChaGo-K-1	1.01	0.768	0.393	0.306	0.467	0.473	0.38	0.211	0.229	0.479	0.59	0.51	0.441	0.146	0.492	0.506	0.476	0.433	0.364	
EBC-1	0.422	0.469	0.307	0.233																0.474
EKVX	1.04	0.954	0.511	0.318	0.921	0.885	0.444	0.658	0.307	0.619	0.529	0.354	0.37	0.282	0.311	0.323	0.279	0.215	0.215	0.859
EMC-BAC-2	0.92	0.868	0.319	0.279	0.895	0.932	0.651	0.297	0.248	0.319	0.333	0.193	0.16	0.112		0.712	0.538	0.342	0.328	0.927
EPLC-272H	0.883	0.718	0.174	0.158	0.185	0.238	0.207	0.265	0.12	0.373	0.342	0.222	0.354	0.245	0.358	0.343	0.301	0.171	0.129	0.863
H3255	0.925	0.666	0.283	0.244	0.877	0.829	0.576	0.703	0.379	0.424	0.367	0.345	0.306	0.274	0.582	0.631	0.586	0.414	0.342	0.664
HARA	1.09	1.04	0.514	0.239	0.403	0.999	0.682	0.226	0.106	0.263	0.298	0.259	0.23	0.181	0.513	0.534	0.473	0.313	0.335	1
HCC-15	1.01	0.815	0.299	0.318	0.473	0.303	0.366	0.15	0.178	0.623	0.64	0.537	0.261	0.0797	0.591	0.639	0.543	0.336	0.276	0.914
